Measured values: paper PMC3200184, “In vitro anti-plasmodial activity of Dicoma anomala subsp. gerrardii (Asteraceae): identification of its main active constituent, structure-activity relationship studies and gene expression profiling” (Malaria Journal, 2011)
Like-named read-outs stand apart in the source and are kept apart here.

Assays:
[1] = test system: P. falciparum chloroquine-sensitive D10 strain; assay: pLDH in vitro anti-malarial assay, D10 strain; type: cell-based, Plasmodium falciparum; conditions: for Anti-malarial activity (in words): D10 strain, SAR discussion; for IC50: Plasmodium falciparum
Method: (§1) Asexual P. falciparum chloroquine-sensitive 3D7 and D10 cultures, as well as chloroquine-resistant K1 strain cultures, were maintained and synchronized according to established methods in an atmosphere consisting of 5% oxygen, 5% carbon dioxide and 90% nitrogen. The parasites were maintained at a 5% haematocrit in RPMI 1640 medium supplemented with 25 mM HEPES, 22 mM glucose, 0.0088% hypoxanthine, 40 ug/mL gentamycin (all Sigma) and 0.5% Albumax (Invitrogen).
(§2) The anti-plasmodial activities of the extracts and pure compounds were determined against the chloroquine-sensitive D10 and the chloroquine-resistant K1 strains via the parasite lactate dehydrogenase (pLDH) assay. All test substances were stored at -20°C prior to testing. […] Chloroquine diphosphate (Sigma) was used as a reference drug in all experiments. The test substances were evaluated as ten serial two-fold dilutions (0.2 - 100 μg/mL final concentration) in medium (two replicates per concentration point) in duplicate wells. […] Test solutions were mixed with suspensions of infected human red blood cells to achieve a final haematocrit of 1% and parasitaemia of 2% and incubated for 48 h in microtitre plates (250 uL final volume). Incubation conditions were as described above for the routine maintenance of the P. falciparum cultures. The IC50 values, serving as a measure for anti-plasmodial activities, were calculated by non-linear regression dose-response analysis using GraphPad Prism v.4.0 software.

[2] = test system: Chinese hamster ovary (CHO) cell line; assay: MTT in vitro cytotoxicity assay; type: cell-based; conditions: for Mammalian toxicity, CHO (in words): SAR discussion; for IC50: Cricetulus griseus, read-out: CHO IC50 (μM) n = 2
Method: Compounds were tested for in vitro cytotoxicity against a Chinese hamster ovary (CHO) cell line using the MTT [3-(4,5-dimethylthiazol-2-yl)-2,5-diphenyltetrazolium bromide] assay. The CHO cells were cultured in DMEM: Hams F-12 medium (1:1) supplemented with 10% heat-inactivated foetal calf serum (FCS) and gentamycin ([…]) (Highveld Biological, RSA). Samples were dissolved in 10% MeOH. Stock solutions (2 mg/mL) were prepared and were stored at -20°C until use. The samples were added to CHO cells as five ten-fold serial dilutions ranging from 100 - 0.01 μg/mL. A serial dilution of emetine (100 - 0.001 μg/mL) was used as a positive control. Cells were seeded in 96-well plates at a concentration of 10^5/mL (100 μL per well) and incubated at 37°C for 24 h in a humidified 5% CO2-air atmosphere. The medium was subsequently aspirated from the wells and replaced with 200 μL of the test compound dilutions. The microplates were incubated at 37°C for 48 h, after which 25 μL of sterile MTT (5 mg/mL in PBS) was added to each well and incubation was continued for 4 h at 37°C. Formazan crystals formed by viable cells were dissolved in DMSO and quantitated by measuring absorbance at 540 nm in a microtitre plate reader (Cambridge Technologies). Cell viabilities were calculated relative to reference wells containing no test compounds (positive cell controls) and no cells (background controls), plotted against log[test sample] and IC50 values derived by non-linear regression analysis using GraphPad Prism v.4.0 software.

[3] = test system: P. falciparum chloroquine-resistant K1 strain; assay: microbe, parasite or virus in culture; type: cell-based; conditions: Plasmodium falciparum
Method: as §1, §2

P. falciparum 3D7 [4] = assay: Dose-response curves on P. falciparum 3D7 (IC99 for treatment); type: cell-based, Plasmodium falciparum; conditions: P. falciparum 3D7, determined from dose-response curves
Method: as §1
A morphological comparison between compound 1 treated versus untreated parasites was performed to assess the effect of treatment and to establish sampling times, by examining the stage-specific progression of parasites across the intra-erythrocytic development cycle. The solvent (DMSO) or compound 1 was added in the window shortly after red blood cell (RBC) invasion and parasite development was monitored 6 hourly over a 48 h period using conventional Giemsa-stained smears. Fresh cultures were scaled up to 50 ml (5% hematocrit, 10% parasitemia), synchronized twice and treated with compound 1 in the window around invasion. Fifteen milliliters of culture was harvested at each of the stages used for transcriptional analyses (2, 6 and 12 hpt). Similar volumes were harvested from untreated P. falciparum 3D7 control cultures at the same time points. Parallel drug treatments were conducted, serving as biological replicates. […]

P. falciparum 3D7 [5] = assay: Morphological analysis of treated ring-stage parasites (Giemsa smears); type: cell-based, Plasmodium falciparum; conditions: 3D7, treated at early ring stage with 12.5 μM, followed over 48 h
Method: A morphological comparison between compound 1 treated versus untreated parasites was performed to assess the effect of treatment and to establish sampling times, by examining the stage-specific progression of parasites across the intra-erythrocytic development cycle. The solvent (DMSO) or compound 1 was added in the window shortly after red blood cell (RBC) invasion and parasite development was monitored 6 hourly over a 48 h period using conventional Giemsa-stained smears. Fresh cultures were scaled up to 50 ml (5% hematocrit, 10% parasitemia), synchronized twice and treated with compound 1 in the window around invasion. Fifteen milliliters of culture was harvested at each of the stages used for transcriptional analyses (2, 6 and 12 hpt). Similar volumes were harvested from untreated P. falciparum 3D7 control cultures at the same time points. Parallel drug treatments were conducted, serving as biological replicates. RNA was extracted from the frozen erythrocyte pellets as described.
A morphological analysis was performed with dehydrobrachylaenolide to ascertain the point during intra-erythrocytic development at which P. falciparum 3D7 growth was affected. […] Based on these morphological observations and the apparent rapid effect of dehydrobrachylaenolide on P. falciparum development, sampling times for transcriptional analysis were subsequently determined as 2, 6 and 12 hpt. […]

NCI's 60-cell line panel = test system: NCI's 60-cell line panel; set-up: method as in earlier work; conditions: selectivity trend towards the leukaemia sub-panel; cited from earlier work
[6] = test system: induction of intracellular adhesion molecule-1 (ICAM-1); set-up: method as in PMID 12762788; conditions: cited from earlier work
[7] = D10, read-out: D10 strain IC50 (μM) n = 2
[8] = D10, 48 h, read-out: D10 IC50 (μM) n = 8
[9] = K1, 48 h, read-out: K1 IC50 (μM) n = 4
[10] = read-out: D10 strain IC50 (μM) n = 2, Table 2, D10, pLDH assay, parent compound n = 8
[11] = K1, read-out: K1 strain IC50 (μM) n = 2

With C=C1C(=O)O[C@@H]2[C@H]3[C@@H](C)C(=O)C=C[C@]3(C)CC[C@@H]12 [Compound 6, (3aS,5aS,9R,9aS,9bS)-5a,9-dimethyl-3-methylene-3a,4,5,5a,9,9a-hexahydronaphtho[1,2-b]furan-2,8(3H,9bH)-dione] the “Anti-malarial activity (in words)” value [1] was “no significant improvement in anti-malarial activity”, the IC50 [1, 7] was 16.9 µM and the “Mammalian toxicity, CHO (in words)” value ([2]; CHO cells) was “increased mammalian cell toxicity”. The IC50 ([2]; CHO) was 41.9 µM.
With CCN(CC)CCCC(C)Nc1ccnc2cc(Cl)ccc12 (centres unmarked) [Chloroquine, Chloroquine diphosphate, reference compound] the IC50 [1, 8] was 0.038 µM, the IC50 [3, 9] was 0.2 µM and the IC50 ([2]; CHO, 48 h) was 35.8 µM.
For C[C@@H]1C(=O)O[C@H]2[C@H]1CC[C@@]1(C)CCC(=O)[C@H](C)[C@H]21 [Compound 4, (3S,3aS,5aS,9R,9aS,9bS)-3,5a,9-trimethyl-octahydronaphtho[1,2-b]furan-2,8(3H,9bH)-dione], the “Anti-malarial activity (in words)” value [1] was “lacking both activity and toxicity”, the IC50 [1, 10] was greater than 40 µM and the “Mammalian toxicity, CHO (in words)” value ([2]; CHO cells) was “lacking both activity and toxicity”. The IC50 ([2]; Table 2, CHO cells, MTT) was greater than 400 µM.
For C=C1C(=O)O[C@@H]2C3=C(C)C(=O)C=C[C@]3(C)CC[C@@H]12 [Compound 2, (3aS,5aS,9bS)-5a,9-dimethyl-3-methylene-3a,4,5,5a-tetrahydronaphtho[1,2-b]furan-2,8(3H,9bH)-dione], the “Anti-malarial activity (in words)” value [1] was “six-fold less active”, the IC50 [1, 7] was 11.5 µM and the IC50 [3, 11] was 9.05 µM. For the same compound, the IC50 ([2]; CHO) was 7.01 µM.
C=C1C(=O)C=C[C@]2(C)CC[C@H]3C(=C)C(=O)O[C@H]3[C@@H]12 [Compound 1, 3-oxoeudesma-1,4(15),11(13)-triene-12,6α-lide] gave an IC50 [1, 8] of 1.86 ± 0.254 µM, an IC50 [1, 7] of 1.86 µM and an IC50 ([1]; D10, read-out: IC50 against D10 strain) of 0.455 µg/mL. The IC50 [3, 9] was 4.09 ± 0.579 µM, the IC50 ([3]; K1, read-out: IC50 against K1 strain) was 1 µg/mL and the IC50 [3, 11] was 4.09 µM. The IC50 ([2]; CHO, 48 h) was 17.2 µM, the IC50 ([2]; CHO) was 17.2 µM and the “IC99 (treatment concentration)” value (P. falciparum 3D7 [4]) was 12.5 µM. For the same compound, the “Morphological effect on intra-erythrocytic development” value (P. falciparum 3D7 [5]) was “Treated parasites remained arrested in the ring phase”, the “Anti-cancer activity (in words)” value (NCI's 60-cell line panel) was “significant anti-cancer activity” and the “Activity toward ICAM-1 induction (in words)” value [6] was “inhibitory activity”.
With C=C1C(=O)C[C@H]2C1CCC1(C)CCC(=O)C(C)C21 (stereo partly drawn) [Compound 5, (9bS)-5a,9-Dimethyl-3-methyleneoctahydro-1H-cyclopenta[a]naphthalene-2,8(3H,9bH)-dione] the “Anti-malarial activity (in words)” value [1] was “moderate anti-malarial activity”, the IC50 [1, 10] was 22.1 µM and the “Mammalian toxicity, CHO (in words)” value ([2]; CHO cells) was “substantially reduced”. It also gave an IC50 ([2]; Table 2, CHO cells, MTT) of 124 µM.
With CC1=C2[C@H]3OC(=O)[C@@H](C)[C@@H]3CC[C@@]2(C)C=CC1=O [Compound 3, santonin] the “Anti-malarial activity (in words)” value [1] was “devoid of any significant anti-malarial activity”, the IC50 [1, 7] was greater than 40 µM and the “Mammalian toxicity, CHO (in words)” value ([2]; CHO cells) was “devoid of any significant anti-malarial activity or mammalian toxicity”. For the same compound, the IC50 ([2]; CHO) was greater than 400 µM.
